Results published in patent US11992471B2, “Reelin/VEGF-C production/activation promoter and skin external composition using the same” (AMOREPACIFIC CORPORATION, priority 2021, dated 2024).

Experiments:
Type in all cases: cell-based
[1] = test system: Human dermal lymphatic endothelial cells (HDLEC); assay: Cytotoxicity analysis (WST-8 cell viability); settings: within a concentration range of 200 ppm, cultured 24 hours and 72 hours, FIG. 1
Protocol: Human dermal lymphatic endothelial cells (HDLEC, PromoCell, Germany) were newly cultured in 96 well dishes for one day and then treated with a compound represented by Chemical Formula E-1 (Biogenics Company) at each concentration of 0 ppm ( ? ) to 200 ppm ( ? ). The cells were cultured for 24 hours and 72 hours, and then measured with respect to absorbance at 450 nm by using a QuantiMax WST-8 Cell viability assay kit to check cell viability, and the results are shown in FIG. 1.

VEGF-C = VEGF-C cytokine analysis (VEGFC human ELISA); settings: HDLEC, 1 ppm and 10 ppm, 48 hours, compared with cells with no treatment (100%), FIG. 3
Protocol: After culturing human dermal lymphatic endothelial cells in 6 well plates for 24 hours, while the cells with no treatment (N.T) were used as a reference (100%), the cells were treated with the compound represented by Chemical Formula E-1 at each concentration of 1 ppm and 10 ppm and cultured for 48 hours and then measured with respect to production and activity of VEGF-C through a VEGF-C cytokine analysis by using a VEGFC human ELISA Kit (ThermoFisher, U.S.A.) according to a manual, and the results are shown in FIG. 3.

reelin = assay: Reelin cytokine analysis (human reelin ELISA); settings: HDLEC, 1 ppm and 10 ppm, 48 hours, compared with cells with no treatment (100%), FIG. 2
Protocol: After culturing human dermal lymphatic endothelial cells in 6 well plates for 24 hours, while the cells with no treatment (N.T) were used as a reference (100%), the cells were treated with the compound represented by Chemical Formula E-1 at each concentration of 1 ppm and 10 ppm and cultured for 48 hours and then measured with respect to production and activity of reelin through a reelin cytokine analysis by using human reelin ELISA Kit (Mybiosource, U.S.A.) according to a manual, and the results are shown in FIG. 2.

NCCS(=O)(=O)O [Chemical Formula E-1]
cytotoxicity (cell viability) [1]: no cytotoxicity | production and activity of VEGF-C (VEGF-C): further improve production and activity of VEGF-C | production and activity of reelin (reelin): further improve production and activity of reelin
